Read-outs that look alike come from different tables or passages of the source.
Test system: HCV replicon RNA replication in human Huh7 hepatoma cells
Assay: HCV replicon assay (activity levels from either or both of HCV replicon assay 1, Huh7/Clone A RT-qPCR, and assay 2, Huh7 ET luc-ubi-neo/ET)
Type: cell-based, Hepatitis C virus (HCV)
Settings: 48 hours, 72 hours, Luc activity or RT-PCR, read-out: inhibit HCV replication at IC50 levels or estimated IC50 levels
Description: The HCV replicon assay is a cell-culture system that mimics in vivo HCV replication and provides a system to study HCV replication in vitro. It was created by transfecting cloned viral RNA derived from a consensus HCV genomic sequence into human Huh7 hepatoma cells that are semi-permissive for viral RNA production (Lohmann V., Korner F., Koch J.-O., Herian U., Theilmann L. and Bartenschlager R. (1999). Replication of subgenomic Hepatitis C virus RNAs in a hepatoma cell line. Science 285, 110-113 and Blight K. J., Kolykhalov A. A. and Rice C. M. (2000). Efficient initiation of HCV RNA Replication in cell culture. Science 290, […]). These transfected cell lines contain a subgenomic HCV RNA genome that includes (1) the HCV 5′NTR fused to 12 amino acids of the capsid coding region, (2) the neomycin phosphotransferase gene (Neo) as a selectable marker, (3) the internal ribosome entry site (IRES) from encephalomyocarditis virus (EMCV) that directs translation of HCV non-structural proteins (variously NS2 or NS3 to NS5B), and (4) the 3′ NTR. Replicon-containing cells autonomously and persistently replicate HCV RNA that can be measured quantitatively by real-time qPCR. Therefore, the replicon system facilitates quantitative assessment of anti-viral activity by monitoring changes in HCV RNA replication in a cell-based assay.
HCV replicon-containing cells (Huh7/Clone A) were routinely maintained in Clone A growth medium (DMEM medium [Invitrogen], supplemented with 10% Fetal Bovine Serum, 1% Non Essential Amino Acids and 1 g/L G418). Test compounds were dissolved in dimethyl sulfoxide (DMSO) to make 200× stock solutions for all doses prior to treatment.
For the HCV replicon assay, Huh7/Clone A cells were trypsinized from culture flasks, seeded in 1 ml of Clone A growth medium without G418 at 4×10^4 cells per well in 24-well plates and incubated at 37° C. in a humidified CO2 (5%) incubator overnight. Following overnight incubation, compound solutions were added into wells in the same volume (5 μl of 200× compound stock per well) to give a final DMSO concentration of 0.5%. Three wells on each plate supplemented with 5 μl of DMSO served as untreated controls. For IC50 determinations, compounds were tested at 7 serial dilutions in triplicates from the starting stock solutions. The plates were incubated at 37° C. for 48 hours. After incubation, cells were harvested, transferred to 96-well plates, and subjected to total RNA extraction using the RNA Isolation Kit (RNeasy 96, Qiagen) according to the protocol described by the manufacture's RNeasy 96 Handbook (Qiagen).
Total RNA eluted in 130 μl of RNase-free dH2O was quantitated by the RiboGreen Assay according to the supplier's protocol (Molecular Probe). Briefly, 5 μl of RNA samples were aliquoted in duplicate to a 96-well black microplate and a 96-well TaqMan Optical plate. RNA samples in the black microplate were mixed with 95 μl of diluted RiboGreen:reagent (1:250 dilution in TE buffer) and sample fluorescence was measured using a fluorescence microplate reader at standard fluorescein wavelengths (excitation ˜480 nm, emission ˜520 nm). Ribosomal RNA (Molecular Probe) was used as standard.
TaqMan quantitative PCR (RT-qPCR) was used to quantitate the amount of HCV replicon RNA in each sample. The RT-qPCR reactions were performed in 25 μl on an ABI PRISM 7900 HT Sequence Detection System (Applied Biosystems). The reaction mixture contained 5 μl of total RNA (10-100 ng), 1× TaqMan Buffer A (Applied Biosystems), 5.5 mM MgCl2, 1.2 mM dNTP mix, 0.625 U of AmpliTaq Gold (Applied Biosystems), 5 U of MMLV reverse transcriptase (Promega), 5 U of rRNasin (Promega), 300 nM each of the forward and reverse primers, and 100 nM TaqMan MGB probe. Primers and probe were designed to hybridize to a portion of the neomycin resistance gene (neo) in the replicon and the sequences are as follows: forward primer 5′-GGCTACCTGCCCATTCGA-3′; reverse primer 5′-CCGGCTTCCATCCGAGTAC-3′; MGB probe 5′-CCACCAAGCGAAACA-3′. […]

[1] = Hepatitis C virus, Huh-7, either or both HCV replicon assays: Huh7/Clone A

Compound	IC50 [1]	IC50 (either or both HCV replicon assays: Huh7/Clone A)
O=c1c(-c2noc(Cc3ccccc3)n2)cn(Cc2ccc(Cl)cc2)c2cc(N3CCNCC3)c(F)cc12 [Compound 25, 3-(5-benzyl-[1,2,4]oxadiazol-3-yl)-1-(4-chloro-benzyl)-6-fluoro-7-piperazin-1-yl-1H-quinolin-4-one]	< 2 µM	
O=c1c(-c2noc(Cc3ccccc3)n2)cn(Cc2ccc(Cl)cc2)c2cc(N3CCC(O)CC3)c(F)cc12 [Compound 26, 3-(5-benzyl-[1,2,4]oxadiazol-3-yl)-1-(4-chloro-benzyl)-6-fluoro-7-(4-hydroxy-piperidin-1-yl)-1H-quinolin-4-one]	> 10 µM	
CC(=O)N1CCN(c2cc3c(cc2F)c(=O)c(-c2noc(Cc4ccccc4)n2)cn3Cc2ccc(Cl)cc2)CC1 [Compound 27, 7-(4-acetyl-piperazin-1-yl)-3-(5-benzyl-[1,2,4]oxadiazol-3-yl)-1-(4-chloro-benzyl)-6-fluoro-1H-quinolin-4-one]	< 2 µM	
CN1CCN(c2cc3c(cc2F)c(=O)c(-c2noc(Cc4ccc(F)cc4)n2)cn3Cc2ccc(Cl)cc2)CC1 [Compound 28, 1-(4-chloro-benzyl)-6-fluoro-3-[5-(4-fluoro-benzyl)-[1,2,4]oxadiazol-3-yl]-7-(4-methyl-piperazin-1-yl)-1H-quinolin-4-one]	< 2 µM	
CN1CCN(c2cc3c(cc2F)c(=O)c(-c2noc(C(CC(=O)O)c4ccccc4)n2)cn3Cc2ccc(Cl)cc2)CC1 (stereo not drawn) [Compound 31, 3-{3-[1-(4-chloro-benzyl)-6-fluoro-7-(4-methyl-piperazin-1-yl)-4-oxo-1,4-dihydro-quinolin-3-yl]-[1,2,4]oxadiazol-5-yl}-3-phenyl-propionic acid]	> 10 µM	
CN1CCN(c2cc3c(cc2F)c(=O)c(-c2noc(Cc4ccc(F)cc4F)n2)cn3Cc2ccc(Cl)cc2)CC1 [Compound 32, 1-(4-chloro-benzyl)-3-[5-(2,4-difluoro-benzyl)-[1,2,4]oxadiazol-3-yl]-6-fluoro-7-(4-methyl-piperazin-1-yl)-1H-quinolin-4-one]	> 10 µM	
CN1CCN(c2cc3c(cc2F)c(=O)c(-c2noc(Cc4c(F)cccc4F)n2)cn3Cc2ccc(Cl)cc2)CC1 [Compound 33, 1-(4-chloro-benzyl)-3-[5-(2,6-difluoro-benzyl)-[1,2,4]oxadiazol-3-yl]-6-fluoro-7-(4-methyl-piperazin-1-yl)-1H-quinolin-4-one]	< 10 µM	
CN1CCN(c2cc3c(cc2F)c(=O)c(-c2noc(Cc4ccc(F)cc4)n2)cn3Cc2ccc(Cl)cc2F)CC1 [Compound 34, 1-(4-chloro-2-fluoro-benzyl)-6-fluoro-3-[5-(4-fluoro-benzyl)-[1,2,4]oxadiazol-3-yl]-7-(4-methyl-piperazin-1-yl)-1H-quinolin-4-one]	< 2 µM	
CN1CCN(c2cc3c(cc2F)c(=O)c(-c2noc(Cc4ccccc4)n2)cn3Cc2ccc(C(F)(F)F)cc2F)CC1 [Compound 35, 3-(5-benzyl-[1,2,4]oxadiazol-3-yl)-6-fluoro-1-(2-fluoro-4-trifluoromethyl-benzyl)-7-(4-methyl-piperazin-1-yl)-1H-quinolin-4-one]		< 2 µM
CN1CCN(c2cc3c(cc2F)c(=O)c(-c2noc(Cc4ccccc4)n2)cn3Cc2ccc(C(F)(F)F)cc2)CC1 [Compound 36, 3-(5-benzyl-[1,2,4]oxadiazol-3-yl)-6-fluoro-7-(4-methyl-piperazin-1-yl)-1-(4-trifluoromethyl-benzyl)-1H-quinolin-4-one]	< 2 µM	
CN1CCN(c2cc3c(cc2F)c(=O)c(-c2noc(Cc4ccc(F)cc4)n2)cn3Cc2ccc(C(F)(F)F)cc2)CC1 [Compound 37, 6-fluoro-3-[5-(4-fluoro-benzyl)-[1,2,4]oxadiazol-3-yl]-7-(4-methyl-piperazin-1-yl)-1-(4-trifluoromethyl-benzyl)-1H-quinolin-4-one]	< 2 µM	
O=c1c(-c2noc(Cc3ccccc3)n2)cn(Cc2ccc(C(F)(F)F)cc2F)c2cc(N3CCCNCC3)c(F)cc12 [Compound 38, 3-(5-benzyl-[1,2,4]oxadiazol-3-yl)-7-[1,4]diazepan-1-yl-6-fluoro-1-(2-fluoro-4-trifluoromethyl-benzyl)-1H-quinolin-4-one]	< 0.5 µM	
CCCCCc1nc(-c2cn(Cc3ccc(C(F)(F)F)cc3F)c3cc(N4CCN(C)CC4)c(F)cc3c2=O)no1 [Compound 40, 6-fluoro-1-(2-fluoro-4-trifluoromethyl-benzyl)-7-(4-methyl-piperazin-1-yl)-3-(5-pentyl-[1,2,4]oxadiazol-3-yl)-1H-quinolin-4-one]	< 2 µM	
CN1CCN(c2cc3c(cc2F)c(=O)c(-c2noc(Cc4ccccc4)n2)cn3Cc2c(F)cccc2Cl)CC1 [Compound 41, 3-(5-benzyl-[1,2,4]oxadiazol-3-yl)-1-(2-chloro-6-fluoro-benzyl)-6-fluoro-7-(4-methyl-piperazin-1-yl)-1H-quinolin-4-one]	> 10 µM	
CN1CCN(c2cc3c(cc2F)c(=O)c(-c2noc(Cc4ccc(F)cc4)n2)cn3Cc2c(F)cccc2Cl)CC1 [Compound 42, 1-(2-chloro-6-fluoro-benzyl)-6-fluoro-3-[5-(4-fluoro-benzyl)-[1,2,4]oxadiazol-3-yl]-7-(4-methyl-piperazin-1-yl)-1H-quinolin-4-one]	< 10 µM	
O=C(O)c1ccc2c(c1)c(=O)c(-c1noc(Cc3ccccc3)n1)cn2Cc1ccc(C(F)(F)F)cc1F [Compound 43, 3-(5-benzyl-[1,2,4]oxadiazol-3-yl)-1-(2-fluoro-4-trifluoromethyl-benzyl)-4-oxo-1,4-dihydro-quinoline-6-carboxylic acid]	> 10 µM	
CN1CCN(c2cc3c(cc2F)c(=O)c(-c2noc(Cc4ccc(F)cc4)n2)cn3Cc2ccc(F)cc2F)CC1 [Compound 44, 1-(2,4-difluoro-benzyl)-6-fluoro-3-[5-(4-fluoro-benzyl)-[1,2,4]oxadiazol-3-yl]-7-(4-methyl-piperazin-1-yl)-1H-quinolin-4-one]	< 2 µM	
CN1CCN(c2cc3c(cc2F)c(=O)c(-c2noc(Cc4ccccc4)n2)cn3Cc2ccccc2F)CC1 [Compound 45, 3-(5-benzyl-[1,2,4]oxadiazol-3-yl)-6-fluoro-1-(2-fluoro-benzyl)-7-(4-methyl-piperazin-1-yl)-1H-quinolin-4-one]	< 10 µM	
CN1CCN(c2cc3c(cc2F)c(=O)c(-c2noc(Cc4cc(F)cc(F)c4)n2)cn3Cc2ccc(Cl)cc2)CC1 [Compound 46, 1-(4-chloro-benzyl)-3-[5-(3,5-difluoro-benzyl)-[1,2,4]oxadiazol-3-yl]-6-fluoro-7-(4-methyl-piperazin-1-yl)-1H-quinolin-4-one]	< 10 µM	
CN1CCN(c2cc3c(cc2F)c(=O)c(-c2noc(Cc4ccc(F)cc4)n2)cn3Cc2ccccc2F)CC1 [Compound 47, 6-fluoro-3-[5-(4-fluoro-benzyl)-[1,2,4]oxadiazol-3-yl]-1-(2-fluoro-benzyl)-7-(4-methyl-piperazin-1-yl)-1H-quinolin-4-one]	< 10 µM	
CN1CCN(c2cc3c(cc2F)c(=O)c(-c2noc(Cc4ccccc4)n2)cn3Cc2c(F)cccc2F)CC1 [Compound 48, 3-(5-benzyl-[1,2,4]oxadiazol-3-yl)-1-(2,6-difluoro-benzyl)-6-fluoro-7-(4-methyl-piperazin-1-yl)-1H-quinolin-4-one]	< 10 µM	

From patent US20070287699A1, “ANTIVIRAL AGENTS” (ViroBay, Inc., priority 2006, published 2007)
